Reference: the supplement of paper PMC10307832

Key:
Assay in all cases: relative viability (nuclei count vs DMSO), 5 days (fraction); higher = more cells survive
XMD8-85 + AZD7762 = compound: CN1CCN(CC1)C2=CC(=C(C=C2)NC3=NC=C4C(=N3)N(C5=CC=CC=C5C(=O)N4C)C)OC [XMD8-85] + NC(=O)Nc1cc(-c2cccc(F)c2)sc1C(=O)N[C@H]1CCCNC1 [AZD7762] (partner 0.2 µM)
Procedure, shortened: (§1)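 Relative viability divides the nuclei count in treated wells by that in vehicle wells. Lung cancer cell lines were seeded in 1536-well plates, dosed by pin tool the next day, and fixed and stained after 5 days in one step with final 0.05% Triton X-100, 1% formaldehyde and 1 ug/ml Hoechst. Dosing was a single drug or a fixed anchor-drug dose plus five library-drug doses (not always all listed) in √10 steps, and values are medians of duplicate plates imaged at 4×.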

XMD8-85 + Olaparib = compound: CN1CCN(CC1)C2=CC(=C(C=C2)NC3=NC=C4C(=N3)N(C5=CC=CC=C5C(=O)N4C)C)OC [XMD8-85] + O=C(c1cc(Cc2n[nH]c(=O)c3ccccc23)ccc1F)N1CCN(C(=O)C2CC2)CC1 [Olaparib] (partner 8 µM)
Procedure, shortened: as §1

4EGI-1 + Foretinib = compound: O=C(O)C(Cc1ccccc1[N+](=O)[O-])=NNc1nc(-c2ccc(Cl)c(Cl)c2)cs1 (mixture of isomers) [4EGI-1] + COc1cc2c(Oc3ccc(NC(=O)C4(C(=O)Nc5ccc(F)cc5)CC4)cc3F)ccnc2cc1OCCCN1CCOCC1 [Foretinib] (partner 0.25 µM)
Procedure, shortened: as §1

4EGI-1 + Crizotinib = compound: O=C(O)C(Cc1ccccc1[N+](=O)[O-])=NNc1nc(-c2ccc(Cl)c(Cl)c2)cs1 (mixture of isomers) [4EGI-1] + C[C@@H](Oc1cc(-c2cnn(C3CCNCC3)c2)cnc1N)c1c(Cl)ccc(F)c1Cl [Crizotinib] (partner 1 µM)
Procedure, shortened: as §1

Cell Line | relative viability (XMD8-85 + AZD7762; first compound 0.08 µM) | relative viability (XMD8-85 + AZD7762; first compound 0.253 µM) | relative viability (XMD8-85 + AZD7762; first compound 0.8 µM) | relative viability (XMD8-85 + AZD7762; first compound 2.53 µM) | relative viability (XMD8-85 + AZD7762; first compound 8 µM) | relative viability (XMD8-85 + Olaparib; first compound 0.08 µM) | relative viability (XMD8-85 + Olaparib; first compound 0.253 µM) | relative viability (XMD8-85 + Olaparib; first compound 0.8 µM) | relative viability (XMD8-85 + Olaparib; first compound 2.53 µM) | relative viability (XMD8-85 + Olaparib; first compound 8 µM) | relative viability (4EGI-1 + Foretinib; first compound 0.5 µM) | relative viability (4EGI-1 + Foretinib; first compound 1.581 µM) | relative viability (4EGI-1 + Foretinib; first compound 5 µM) | relative viability (4EGI-1 + Foretinib; first compound 15.81 µM) | relative viability (4EGI-1 + Foretinib; first compound 50 µM) | relative viability (4EGI-1 + Crizotinib; first compound 0.5 µM) | relative viability (4EGI-1 + Crizotinib; first compound 5 µM) | relative viability (4EGI-1 + Crizotinib; first compound 15.81 µM) | relative viability (4EGI-1 + Crizotinib; first compound 50 µM) | relative viability (4EGI-1 + Crizotinib; first compound 1.581 µM)
ChaGo-K-1 | 0.825 | 0.883 | 0.855 | 0.903 | 0.91 | 0.409 | 0.43 | 0.409 | 0.433 | 0.347 | 0.942 | 0.935 | 0.816 | 0.975 | 0.799 | 1.23 | 1.15 | 0.961 | 0.553 | 
SW 900 | 0.555 | 0.669 | 0.589 | 0.626 | 0.304 | 0.824 | 0.705 | 1.15 | 0.786 | 0.376 | 0.935 |  | 0.908 | 0.677 | 0.546 |  |  |  |  | 
HCC-44 | 1.05 | 1.06 | 1 | 1.01 | 1.06 | 0.991 | 0.955 | 0.946 | 0.996 | 0.849 |  |  |  |  |  | 0.841 | 0.8 | 0.656 | 0.186 | 0.6
NCI-H2228 |  |  |  |  |  | 0.629 | 0.338 | 0.649 | 0.655 | 0.331 | 0.906 | 0.878 | 0.938 | 0.882 | 0.166 | 0.416 | 0.653 | 0.502 | 0.195 | 0.508
NCI-H1395 | 0.382 | 0.393 | 0.395 | 0.418 | 0.35 | 0.421 | 0.426 | 0.43 | 0.474 | 0.452 | 1.15 | 0.86 | 1.04 | 0.986 | 0.589 |  |  |  |  | 
NCI-H522 | 0.697 | 0.851 | 0.798 | 0.859 | 0.69 | 0.699 | 0.632 | 0.615 | 0.537 | 0.568 |  |  |  |  |  |  |  |  |  | 
SK-MES-1 |  |  |  |  |  | 0.819 | 0.683 |  | 0.707 | 0.408 | 1.04 | 0.955 | 1.03 | 0.521 | 0.824 | 1.04 | 1.02 | 0.872 | 0.921 | 0.957
EBC-1 |  |  |  |  |  | 0.649 | 0.693 | 0.679 | 0.567 | 0.346 | 0.0952 | 0.0989 | 0.0859 | 0.0982 | 0.103 | 0.205 | 0.162 | 0.183 | 0.224 | 0.247
COR-L23 |  |  |  |  |  | 0.369 | 0.319 | 0.421 | 0.302 | 0.236 | 1.08 | 0.728 | 0.98 | 0.736 | 0.29 | 0.687 | 0.64 | 0.521 | 0.141 | 0.412
NCI-H1650 |  |  |  |  |  | 0.877 | 0.91 | 0.951 | 0.699 | 0.303 | 1.37 |  | 1.04 | 0.749 | 0.405 | 1.03 | 0.888 | 0.547 | 0.246 | 
NCI-H2023 |  |  |  |  |  | 0.42 | 0.452 | 0.508 | 0.487 | 0.285 | 0.88 |  | 0.772 | 0.45 | 0.149 | 0.766 | 0.637 | 0.442 | 0.302 | 
NCI-H2009 |  |  |  |  |  | 0.776 | 0.748 | 0.779 | 0.544 | 0.268 | 1.28 | 1.29 | 1.27 | 1.23 | 0.981 | 1.12 | 1.06 | 0.988 | 0.247 | 1.05
SK-LU-1 |  |  |  |  |  | 0.482 | 0.509 |  | 0.417 | 0.391 | 0.956 | 0.829 | 0.841 | 0.746 | 0.284 | 0.891 | 0.943 | 0.688 | 0.334 | 1.05
NCI-H1299 |  |  |  |  |  | 1.02 | 1 | 0.97 | 0.892 | 0.578 | 1.08 | 1.11 | 1.11 | 1.09 | 1.06 | 0.98 | 0.914 | 0.973 | 0.386 | 1
SW 1573 |  |  |  |  |  | 0.496 | 0.48 | 0.546 |  | 0.341 | 1.13 | 0.954 | 1.13 | 0.878 | 0.52 | 0.937 | 0.87 | 0.722 | 0.424 | 0.842
NCI-H661 |  |  |  |  |  | 0.798 | 0.795 | 0.768 | 0.854 | 0.525 | 0.999 | 0.94 | 0.994 | 0.714 | 0.313 | 0.903 | 0.954 | 0.903 | 0.882 | 
UMC-11 |  |  |  |  |  | 0.475 | 0.358 | 0.389 | 0.325 | 0.231 | 1.1 | 1.09 | 1.12 | 1.09 | 0.39 | 0.718 | 0.643 | 0.602 | 0.314 | 0.594
NCI-H1623 |  |  |  |  |  |  |  |  |  |  | 0.889 | 0.608 | 0.941 | 0.584 | 0.707 |  |  |  |  | 
Calu-6 |  |  |  |  |  | 0.621 | 0.574 | 0.596 | 0.558 | 0.395 | 0.933 | 0.717 | 0.919 | 0.912 | 0.659 | 0.796 | 0.854 | 0.834 | 0.201 | 0.756
NCI-H1563 |  |  |  |  |  |  |  |  |  |  | 0.915 | 0.853 | 0.962 | 0.789 | 0.557 | 0.905 | 0.857 | 0.81 | 0.627 | 0.742
A549 |  |  |  |  |  | 0.192 | 0.371 | 0.306 | 0.234 | 0.227 | 1.01 | 0.771 | 0.996 | 0.883 | 0.697 | 0.742 | 0.787 | 0.669 | 0.0783 | 0.683
NCI-H1793 |  | 0.408 | 0.483 | 0.344 | 0.413 |  | 0.574 | 0.71 | 1.02 | 0.66 | 0.645 | 0.948 | 0.686 | 0.443 | 0.33 |  |  |  |  | 
